Reference: patent publication US4723004A, “Cephem compounds” (priority 1984, dated 1988)
Entries after “also recorded” stand apart in the source; their conditions may differ. Where two headings read alike, the source gives them in different places. Each block holds one compound with its values, some of them ahead of it.

Experiments:
Cephalosporinase [1] = biological target: T1, Cephalosporinase (Enterobacter cloacae, UniProt P05364); assay: Stability to β-lactamases, disc method, cephalosporinase (Table 2); type: cell-based; conditions: cephalosporinase 0.025 unit/ml; E. coli PG8; compound 100 g/ml (so in the source)
T1 construct: host or cells: Enterobacter cloacae
Procedure: (§1) Note: Used concentration of the compound; 100 µg/ml Employed strain;
(§2) Escherichia coli PG8 Culture medium; Nutrient agar medium (pH 7.0)
(§3) containing diaminopimelic acid (20 mg/l)
(Note 3) Cephalosprinase is derived from Enterobacter cloacae, 0.025

[2] = test system: Pseudomonas aeruginosa IFO 3080; assay: MIC, antibacterial spectrum (nutrient agar); type: cell-based; conditions: IFO3080, nutrient agar pH 7.0, 10^6 CFU/ml, sodium salt, read-out: Minimal inhibitory concentration
Text: (§4) | Culture medium: Nutrient agar (pH 7.0) concentration of microorganisms | inoculated: 10^6 CFU (colony forming unit)/ml.

[3] = test system: Alcaligenes faecalis IFO 13111; assay: MIC, antibacterial spectrum (nutrient agar); type: cell-based; conditions: IFO13111, nutrient agar pH 7.0, 10^6 CFU/ml, sodium salt, read-out: Minimal inhibitory concentration
Text: as §4

[4] = test system: Proteus mirabilis ATCC 21100; assay: MIC, antibacterial spectrum (nutrient agar); type: cell-based; conditions: ATCC21100, nutrient agar pH 7.0, 10^6 CFU/ml, sodium salt, read-out: Minimal inhibitory concentration
Text: as §4

[5] = test system: Klebsiella pneumoniae IFO 3317; assay: MIC, antibacterial spectrum (nutrient agar); type: cell-based; conditions: IFO3317, nutrient agar pH 7.0, 10^6 CFU/ml, sodium salt, read-out: Minimal inhibitory concentration
Text: as §4

[6] = test system: Staphylococcus aureus FDA 209P; assay: MIC, antibacterial spectrum (nutrient agar); type: cell-based; conditions: FDA209P, nutrient agar pH 7.0, 10^6 CFU/ml, sodium salt, read-out: Minimal inhibitory concentration
Text: as §4

[7] = test system: Escherichia coli NIHJ JC-2; assay: MIC, antibacterial spectrum (nutrient agar); type: cell-based; conditions: NIHJJC2, nutrient agar pH 7.0, 10^6 CFU/ml, sodium salt, read-out: Minimal inhibitory concentration
Text: as §4

[8] = test system: Bacillus subtilis NIHJ PCI219; assay: MIC, antibacterial spectrum (nutrient agar); type: cell-based; conditions: NIHJPCI219, nutrient agar pH 7.0, 10^6 CFU/ml, sodium salt, read-out: Minimal inhibitory concentration
Text: as §4

[9] = test system: Salmonella typhimurium IFO 12529; assay: MIC, antibacterial spectrum (nutrient agar); type: cell-based; conditions: Salmonella enterica, nutrient agar pH 7.0, 10^6 CFU/ml, sodium salt, read-out: Minimal inhibitory concentration
Text: as §4

[10] = test system: Proteus vulgaris IFO 3988; assay: MIC, antibacterial spectrum (nutrient agar); type: cell-based; conditions: IFO3988, nutrient agar pH 7.0, 10^6 CFU/ml, sodium salt, read-out: Minimal inhibitory concentration
Text: as §4

[11] = test system: Bacillus megaterium IFO 12108; assay: MIC, antibacterial spectrum (nutrient agar); type: cell-based; conditions: Priestia megaterium, IFO12108, nutrient agar pH 7.0, 10^6 CFU/ml, sodium salt, read-out: Minimal inhibitory concentration
Text: as §4

[12] = test system: Serratia marcescens IFO 12648; assay: MIC, antibacterial spectrum (nutrient agar); type: cell-based; conditions: IFO12648, nutrient agar pH 7.0, 10^6 CFU/ml, sodium salt, read-out: Minimal inhibitory concentration
Text: as §4

β-lactamases = assay: Stability to β-lactamases (statement in words); type: cell-based
Escherichia coli PG8 = assay: Stability to β-lactamases, disc method, non-added control (Table 2); type: cell-based; conditions: PG8, read-out: Diameter of growth inhibition zone (by the disc method)
Procedure: as §1, §2, §3

Penicillinase [13] = biological target: T2, Penicillinase (Bacillus cereus, UniProt P10424); assay: Stability to β-lactamases, disc method, penicillinase (Table 2); type: cell-based; conditions: penicillinase 0.048 unit/ml; E. coli PG8; compound 100 g/ml (so in the source)
T2 construct: purchased Calbio Chemical, U.S.A; host or cells: Bacillus cereus
Procedure: as §1, §2, §3
(Note 2) Penicillinase derived from Bacillus cereus (produced by Calbio
Chemical, U.S.A.)0.048 unit/ml.

gram-positive bacteria = assay: Antibacterial activity against gram-positive bacteria (statement in words); type: cell-based
Solubility = conditions: sodium salt
gram-negative bacteria = assay: Antibacterial activity against gram-negative bacteria (statement in words); type: cell-based
[14] = Acute toxicity, subcutaneous administration to mice; type: in vivo; conditions: for toxicity: conclusion from 1 g/kg s.c. in mice; for death: mice, subcutaneous, 1 g/kg, sodium salt
Penicillinase [15] = biological target: T2, Penicillinase; assay: Stability to β-lactamases, disc method, penicillinase (Table 5); type: cell-based; conditions: penicillinase 0.048 unit/ml, P. aeruginosa C141
Procedure: (§5) Concentration of the compound (II) 1000 μg/ml
(§6) Concentration of the other compounds: 100 μg/ml
(§7) Strain used: Pseudomonas aeruginosa C141
(§8) Culture medium: Nutrient agar medium (pH 7.0) containing diaminopimeric
(Note 3) Penicillinase (Calbio Chemical, U.S.A.) derived from Bacillus

[16] = test system: Pseudomonas aeruginosa C141; assay: Stability to β-lactamases, disc method, non-added control (Table 5); type: cell-based; conditions: read-out: Diameter of growth inhibition zone (by the disc method); for zone of inhibition at 100 µg/mL: P. aeruginosa C141, other compounds 100 μg/ml
Procedure: as §5, §6, §7, §8

Cephalosporinase [17] = biological target: T1, Cephalosporinase; assay: Stability to β-lactamases, disc method, cephalosporinase (Table 5); type: cell-based; conditions: cephalosporinase 0.025 unit/ml, P. aeruginosa C141
Procedure: as §5, §6, §7, §8
(Note 4) The enzyme is derived from Enterobacter cloacae, 0.025 unit/ml.

[18] = Stability in aqueous solution; type: physicochemical; conditions: for Stability: hydrochloride(s)
Escherichia coli CP 13 = assay: Antibacterial spectrum, growth inhibition zone (Table 4); type: cell-based; conditions: CP13, E. coli CP 13, compound (II) 1000 μg/ml, pH 7.0, sodium salt, read-out: Diameter of growth inhibition zone
Procedure: as §8
(§9) Concentration of the compound (II): 1000 μg/ml.

[19] = test system: Staphylococcus aureus FDA 209P; assay: as above; type: cell-based; conditions: FDA209P, compound (II) 1000 μg/ml, pH 7.0, sodium salt, read-out: Diameter of growth inhibition zone
Procedure: as §8, §9

[20] = test system: Pseudomonas aeruginosa C141; assay: as above; type: cell-based; conditions: compound (II) 1000 μg/ml, pH 7.0, sodium salt, read-out: Diameter of growth inhibition zone
Procedure: as §8, §9

T2 sequence (P10424 44-306): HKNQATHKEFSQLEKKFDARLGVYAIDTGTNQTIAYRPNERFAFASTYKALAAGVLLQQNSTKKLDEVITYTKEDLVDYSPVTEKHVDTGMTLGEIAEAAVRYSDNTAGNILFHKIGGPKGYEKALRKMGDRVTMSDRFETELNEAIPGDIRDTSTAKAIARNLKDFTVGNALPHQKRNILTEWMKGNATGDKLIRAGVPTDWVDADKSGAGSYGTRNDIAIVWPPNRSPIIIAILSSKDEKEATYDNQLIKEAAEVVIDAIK
T1 sequence (P05364 21-381): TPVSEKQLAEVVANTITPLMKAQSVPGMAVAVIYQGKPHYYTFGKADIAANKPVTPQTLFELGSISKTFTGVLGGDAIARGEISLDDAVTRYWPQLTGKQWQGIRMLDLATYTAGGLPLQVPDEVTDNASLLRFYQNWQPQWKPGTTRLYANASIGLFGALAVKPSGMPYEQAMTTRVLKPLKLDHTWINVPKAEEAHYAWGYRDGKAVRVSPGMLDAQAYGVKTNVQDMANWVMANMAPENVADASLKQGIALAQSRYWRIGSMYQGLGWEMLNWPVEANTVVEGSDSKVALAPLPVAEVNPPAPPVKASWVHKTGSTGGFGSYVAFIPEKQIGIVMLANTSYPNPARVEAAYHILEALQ

SMILES: NC(CCCC(=O)N[C@]1(NC=O)C(=O)N2C(C(=O)O)=C(CO)CSC21)C(=O)O (stereo partly drawn) [7-FA-DCPC, 7-formylamino-deacetylcephalosporin C]
- Diameter of growth inhibition zone (by the disc method) (Cephalosporinase [1]): 23 mm
- MIC [2]: 100 µg/mL
- MIC [3]: 12.5 µg/mL
- MIC [4]: 12.5 µg/mL
- MIC [5]: 50 µg/mL
- MIC [6]: 100 µg/mL
- MIC [7]: 50 µg/mL
- MIC [8]: 100 µg/mL
- MIC [9]: 25 µg/mL
- MIC [10]: 25 µg/mL
- MIC [11]: 100 µg/mL
- MIC [12]: 25 µg/mL
- Stability to β-lactamases (β-lactamases): stable to various β-lactamases
- Stability to β-lactamases (β-lactamases; listed as compound (IV)): stable to β-lactamase producing strains
- zone of inhibition at 100 µg/mL (Escherichia coli PG8): 23 mm
- Diameter of growth inhibition zone (by the disc method) (Penicillinase [13]): 23 mm
- antibacterial activity (gram-positive bacteria): exhibits antibacterial activity
- antibacterial activity (gram-positive bacteria; listed as compound (IV)): exhibits antimicrobial activity
- Solubility (Solubility; diethyl ether and ethyl acetate): Sparingly soluble
- Solubility (Solubility; methanol): Soluble
- Solubility (Solubility; water): Readily soluble
- antibacterial activity (gram-negative bacteria): exhibits antibacterial activity
- antibacterial activity (gram-negative bacteria; listed as compound (IV)): exhibits antimicrobial activity
- toxicity [14]: low toxicity
- death [14]: no death was observed

SMILES: CO[C@@]1(NC(=O)CCC[C@@H](N)C(=O)O)C(=O)N2C(C(=O)O)=C(COC(N)=O)CS[C@@H]21 [CMC, Cephamycin C]
- Diameter of growth inhibition zone (by the disc method) (Penicillinase [15]; other compounds 100 μg/ml): 27.5 mm
- Diameter of growth inhibition zone (by the disc method) (Cephalosporinase [1]): < 8 mm
- zone of inhibition at 100 µg/mL [16]: 27.5 mm
- zone of inhibition at 100 µg/mL (Escherichia coli PG8): 30 mm
- Diameter of growth inhibition zone (by the disc method) (Penicillinase [13]): 30 mm
- Diameter of growth inhibition zone (by the disc method) (Cephalosporinase [17]; other compounds 100 μg/ml): < 8 mm

SMILES: N[C@H](CCCC(=O)N[C@@H]1C(=O)N2C(C(=O)O)=C(CO)CS[C@H]12)C(=O)O [DCPC, deacetylcephalosporin C]
- Diameter of growth inhibition zone (by the disc method) (Penicillinase [15]; other compounds 100 μg/ml): 30 mm
- Diameter of growth inhibition zone (by the disc method) (Cephalosporinase [1]): < 8 mm
- zone of inhibition at 100 µg/mL [16]: 30 mm
- zone of inhibition at 100 µg/mL (Escherichia coli PG8): 30 mm
- Diameter of growth inhibition zone (by the disc method) (Penicillinase [13]): 30 mm
- Diameter of growth inhibition zone (by the disc method) (Cephalosporinase [17]; other compounds 100 μg/ml): < 8 mm

SMILES: CC(N)C(=O)NC(CCCNC(=N)N)C(O)CC(=O)OCC1=C(C(=O)O)N2C(=O)[C@@](NC=O)(NC(=O)CCCC(N)C(=O)O)C2SC1 (stereo partly drawn) [TAN-547A]
- Stability ([18]; acidic aqueous solution): Unstable
- Stability ([18]; basic aqueous solution): Unstable
- Stability ([18]; neutral aqueous solution): slightly unstable

SMILES: CC(N)C(=O)NC(C)C(=O)NC(CCCNC(=N)N)C(O)CC(=O)OCC1=C(C(=O)O)N2C(=O)[C@@](NC=O)(NC(=O)CCCC(N)C(=O)O)C2SC1 (stereo partly drawn) [TAN-547B]
- Stability ([18]; acidic aqueous solution): Unstable
- Stability ([18]; basic aqueous solution): Unstable
- Stability ([18]; neutral aqueous solution): slightly unstable

SMILES: CC(N)C(=O)NC(C)C(=O)NC(C)C(=O)NC(CCCNC(=N)N)C(O)CC(=O)OCC1=C(C(=O)O)N2C(=O)[C@@](NC=O)(NC(=O)CCCC(N)C(=O)O)C2SC1 (stereo partly drawn) [TAN-547C]
- Stability ([18]; acidic aqueous solution): Unstable
- Stability ([18]; basic aqueous solution): Unstable
- Stability ([18]; neutral aqueous solution): slightly unstable

SMILES: N[C@]1(NC=O)C(=O)N2C(C(=O)O)=C(CO)CSC21 (stereo partly drawn) [compound (II)]
- stability in aqueous solution ([18]; compared with a cephem compound which is acetylated (--CH2OCOCH3 at 3-position)): remarkably more stable in aqueous solution
- Diameter of growth inhibition zone (by the disc method) (Penicillinase [15]; compound (II) 1000 μg/ml): 19 mm
- zone of inhibition at 1000 µg/mL (Escherichia coli CP 13): 11 mm
- zone of inhibition at 1000 µg/mL [19]: < 8 mm
- zone of inhibition at 1000 µg/mL [20]: 19 mm
- Stability to β-lactamases (β-lactamases): stable to various β-lactamases
- zone of inhibition at 1000 µg/mL ([16]; P. aeruginosa C141, compound (II) 1000 μg/ml): 19 mm
- antibacterial activity (gram-negative bacteria): exhibits antibacterial activity; also recorded: exhibits antimicrobial activity
- toxicity [14]: low toxicity
- death [14]: no death was observed
- Diameter of growth inhibition zone (by the disc method) (Cephalosporinase [17]; compound (II) 1000 μg/ml): 19 mm

Next, values leading:

- Stability ([18]; acidic aqueous solution): Slightly unstable
- Stability ([18]; basic aqueous solution): Unstable
- Stability ([18]; neutral aqueous solution): Slightly unstable
SMILES: CC(N)C(=O)NC(CCCNC(=N)N)C(O)CC(=O)OCC1=C(C(=O)O)N2C(=O)[C@@H](NC(=O)CCCC(N)C(=O)O)C2SC1 (stereo partly drawn) [TAN-547D]

- Stability ([18]; acidic aqueous solution): Slightly unstable
- Stability ([18]; basic aqueous solution): Unstable
- Stability ([18]; neutral aqueous solution): Slightly unstable
SMILES: CC(N)C(=O)NC(C)C(=O)NC(CCCNC(=N)N)C(O)CC(=O)OCC1=C(C(=O)O)N2C(=O)[C@@H](NC(=O)CCCC(N)C(=O)O)C2SC1 (stereo partly drawn) [TAN-547E]

- Stability ([18]; acidic aqueous solution): Slightly unstable
- Stability ([18]; basic aqueous solution): Unstable
- Stability ([18]; neutral aqueous solution): Slightly unstable
SMILES: CC(N)C(=O)NC(C)C(=O)NC(C)C(=O)NC(CCCNC(=N)N)C(O)CC(=O)OCC1=C(C(=O)O)N2C(=O)[C@@H](NC(=O)CCCC(N)C(=O)O)C2SC1 (stereo partly drawn) [TAN-547F]
